Measured values published in ChEMBL document CHEMBL5046313, “Synthesis and Optimization of Nitroxide-Based Inhibitors of Ferroptotic Cell Death in Cancer Cells and Macrophages” (ACS Med Chem Lett, 2022).

How the values were obtained:
[1] = system: HT-1080; experiment: Anti-ferroptotic activity against Erastin-induced ferroptosis in human HT-1080 cells assessed as cell activity measured after 24 hrs by Cell Titer-Glo luminescent assay; type: functional, cell-based; conditions: HT-1080, 24 h
[2] = system: RAW264.7; experiment: Anti-ferroptotic activity against RSL-3 induced ferroptosis in mouse RAW264.7 cells assessed as cell activity measured after 24 hrs by Cell Titer-Glo luminescent assay; type: functional, cell-based; conditions: RAW264.7, 24 h
[3] = Lipophilicity, log P of the compound; type: physicochemical; conditions: octanol/water
[4] = Metabolic stability in human liver S9 fraction assessed as half life measured upto 60 mins in presence of NADPH by LC-MS/MS analysis; type: ADME, subcellular
[5] = Metabolic stability in mouse liver S9 fraction assessed as half life measured upto 60 mins in presence of NADPH by LC-MS/MS analysis; type: ADME, subcellular

SMILES | EC50 [1] [nM] | EC50 [2] [nM] | logP [3] | half-life [4] [min] | half-life [5] [min]
CCOC(=O)c1ccc(NC2CCCCC2)c(N)c1 | 70 | 40 | 2.8 |  | 
CC1(C)CC(NC(=O)C(C)(C)/C=C/[C@H](NC(=O)OC(C)(C)C)c2ccccc2)CC(C)(C)N1 | 330 |  | 4.2 |  | 
CC(C)C[C@@H](/C=C/C1(C(=O)NC2CC(C)(C)NC(C)(C)C2)CC1)NC(=O)OC(C)(C)C | 800 | 1130 | 3.5 |  | 
CC1(C)CC(NC(=O)C(/C=C/[C@@H](NC(=O)OC(C)(C)C)c2ccc(F)cc2)(Cc2ccc(F)cc2)Cc2ccc(F)cc2)CC(C)(C)N1 | 280 |  | 7.9 |  | 
CC(C)C[C@@H](/C=C/C(Cc1ccccc1)(Cc1ccccc1)C(=O)NC1CC(C)(C)NC(C)(C)C1)NC(=O)OC(C)(C)C | 130 | 370 | 7.2 | 7 | 3
CC1(C)CC(NC(=O)C(/C=C/[C@@H](NC(=O)OC(C)(C)C)c2ccoc2)(Cc2ccc(F)cc2)Cc2ccc(F)cc2)CC(C)(C)N1 | 430 |  | 6 |  | 
CC(C)C[C@@H](/C=C/C(C)(C)C(=O)NC1CC(C)(C)NC(C)(C)C1)NC(=O)OC(C)(C)C | 240 | 1150 | 4 |  | 
CC1(C)CC(NC(=O)C(/C=C/[C@@H](NC(=O)OC(C)(C)C)c2ccc(F)cc2)(Cc2ccc(F)cn2)Cc2ccc(F)cn2)CC(C)(C)N1 | > 2000 |  | 5.8 |  | 
CC(C)C[C@@H](/C=C/C1(C(=O)NC2CC(C)(C)NC(C)(C)C2)CCOCC1)NC(=O)OC(C)(C)C | 2200 |  | 3.1 |  | 
CC1(C)CC(NC(=O)C/C=C/[C@H](NC(=O)OC(C)(C)C)c2ccccc2)CC(C)(C)N1 | 1300 | 2760 | 2.9 |  | 
CC(C)C[C@H](/C=C/C(C)(C)C(=O)NC1CC(C)(C)NC(C)(C)C1)NC(=O)OC(C)(C)C | 250 | 1170 | 4 | 7 | 3
CC(C)C[C@@H](/C=C/CC(=O)NC1CC(C)(C)NC(C)(C)C1)NC(=O)OC(C)(C)C | 3580 | 4090 | 2.8 | 5 | 9
CC1(C)CC(NC(=O)C(/C=C/[C@H](NC(=O)OC(C)(C)C)c2ccoc2)(Cc2ccc(F)cc2)Cc2ccc(F)cc2)CC(C)(C)N1 | 240 |  | 6 |  | 
CC(C)C[C@H](/C=C/C(Cc1ccc(F)cc1)(Cc1ccc(F)cc1)C(=O)NC1CC(C)(C)NC(C)(C)C1)NC(=O)OC(C)(C)C | 180 |  | 7.6 |  | 
CC1(C)CC(NC(=O)C(/C=C/[C@H](NC(=O)OC(C)(C)C)c2ccc(F)cc2)(Cc2ccc(F)cc2)Cc2ccc(F)cc2)CC(C)(C)N1 | 340 | 250 | 7.9 | 7 | 3
CC(C)C[C@@H](/C=C/C(Cc1ccc(F)cc1)(Cc1ccc(F)cc1)C(=O)NC1CC(C)(C)NC(C)(C)C1)NC(=O)OC(C)(C)C | 330 | 600 | 7.6 |  | 
CC(C)C[C@@H](/C=C/C1(C(=O)NC2CC(C)(C)NC(C)(C)C2)CCCC1)NC(=O)OC(C)(C)C | 560 |  | 4.4 |  | 
